The values that follow come from paper PMC7881240, “Calmodulin regulates the olfactory performance in Drosophila melanogaster” (Scientific Reports, 2021).

As usually defined, the EC50 is the concentration giving half of the maximal effect. High values mean a need for much substance, low ones an effect from little substance.

One experiment deals with T1, Or22a (Drosophila melanogaster, UniProt P81909).
T1 construct: Or22a/OrcoWT in Or22a-expressing olfactory sensory neurons, ex vivo antenna; with Orco
T1 sequence (P81909 1-397): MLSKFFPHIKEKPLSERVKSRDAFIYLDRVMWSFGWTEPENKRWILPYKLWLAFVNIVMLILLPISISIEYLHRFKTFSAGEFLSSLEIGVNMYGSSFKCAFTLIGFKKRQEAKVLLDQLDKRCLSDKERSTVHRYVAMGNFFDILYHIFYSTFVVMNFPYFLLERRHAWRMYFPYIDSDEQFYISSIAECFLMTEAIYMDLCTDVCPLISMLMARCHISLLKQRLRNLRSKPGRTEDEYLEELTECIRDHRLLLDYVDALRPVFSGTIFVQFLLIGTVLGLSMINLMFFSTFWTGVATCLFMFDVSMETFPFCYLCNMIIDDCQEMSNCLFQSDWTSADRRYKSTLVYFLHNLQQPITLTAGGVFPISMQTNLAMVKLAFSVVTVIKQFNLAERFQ
T1 sequence (Q9VNB5 1-486 partner): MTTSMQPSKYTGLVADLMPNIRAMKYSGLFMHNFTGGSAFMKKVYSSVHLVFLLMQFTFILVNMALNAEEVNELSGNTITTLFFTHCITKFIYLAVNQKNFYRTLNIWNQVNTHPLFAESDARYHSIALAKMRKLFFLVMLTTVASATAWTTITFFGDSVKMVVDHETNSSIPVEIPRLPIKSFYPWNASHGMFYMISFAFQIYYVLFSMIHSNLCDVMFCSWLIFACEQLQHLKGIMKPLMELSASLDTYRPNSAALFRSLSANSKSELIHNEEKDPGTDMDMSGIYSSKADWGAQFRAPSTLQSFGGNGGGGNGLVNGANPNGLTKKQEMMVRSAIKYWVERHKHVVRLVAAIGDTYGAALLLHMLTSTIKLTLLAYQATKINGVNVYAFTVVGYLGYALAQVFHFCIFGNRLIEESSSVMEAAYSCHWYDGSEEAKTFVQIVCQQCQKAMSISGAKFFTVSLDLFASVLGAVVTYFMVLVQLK
As to the kind of experiment: GCaMP6f Ca2+ imaging of Or22a OSNs, concentration-response.

Experiment [1] has as its target T2, Orco (Drosophila melanogaster, UniProt Q9VNB5, K339N).
T2 construct: OrX/OrcoK339N in olfactory sensory neurons (Orco1 null background), ex vivo antenna; with OrX
As to the kind of experiment: GCaMP6f Ca2+ imaging of OSNs, concentration-response.

The target in experiment [2] is T3, Orco (Drosophila melanogaster, UniProt Q9VNB5).
T3 construct: native OrX/OrcoWT in olfactory sensory neurons, ex vivo antenna; with OrX
T3 sequence (Q9VNB5 1-486): T1 sequence (Q9VNB5 1-486 partner)
The description is as above.

T2 sequence (Q9VNB5 whole entry K339N): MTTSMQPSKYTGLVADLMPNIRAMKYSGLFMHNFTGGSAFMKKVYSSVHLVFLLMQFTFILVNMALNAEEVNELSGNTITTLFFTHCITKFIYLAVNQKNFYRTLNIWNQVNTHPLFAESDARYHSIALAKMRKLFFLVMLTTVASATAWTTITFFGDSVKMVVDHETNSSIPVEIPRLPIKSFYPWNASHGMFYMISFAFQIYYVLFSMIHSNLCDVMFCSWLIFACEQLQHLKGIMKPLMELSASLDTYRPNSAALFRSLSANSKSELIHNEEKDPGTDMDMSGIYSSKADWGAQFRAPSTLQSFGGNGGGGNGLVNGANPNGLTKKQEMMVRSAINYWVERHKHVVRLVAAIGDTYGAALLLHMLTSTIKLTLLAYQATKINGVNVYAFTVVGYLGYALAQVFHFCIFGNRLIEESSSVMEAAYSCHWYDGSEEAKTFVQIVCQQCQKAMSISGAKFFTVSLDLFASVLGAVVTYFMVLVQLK

The compound `CCCCCC(=O)OCC` [ethyl hexanoate] displayed a 50% effective concentration (EC50) at Or22a of 13 µM. In the case of `CCc1ccc(NC(=O)CSc2nnc(-c3cccnc3)n2CC)cc1` [VUAA1, 2-(4-Ethyl-5-(pyridin-3-yl)-4H-1,2,4-triazol-3-ylthio)-N-(4-ethylphenyl) acetamide], the EC50 on Orco [1] is 85 µM; at Orco [2], 88 µM.
